Experimental data published in ChEMBL document CHEMBL1201862, “PubChem BioAssay data set” (2004).
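Dose response: 5 concentrations. Exposure: 48 h. Format: 96-well plates. Endpoint: linear interpolation; highest concentration if not reached. GI50: concentration for 50% inhibition of growth.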 The source made the active and inactive calls. Cut-off read from the data, not from the text of the source: active = GI50 up to about 1.1 µM and inactive = higher.

Legend:
Experiment in all cases: NCI anticancer screen, dose series, 48 h
[1] = test system: IGROV-1
[2] = test system: RPMI-8226
[3] = test system: SF-539
[4] = test system: Hs-578T
[5] = test system: EKVX
[6] = test system: UO-31
[7] = test system: OVCAR-5
[8] = test system: PC-3
[9] = test system: HCC 2998
[10] = test system: BT-549
[11] = test system: T47D
[12] = test system: KM12
[13] = test system: NCI-H460
[14] = test system: SW-620
[15] = test system: TK-10
[16] = test system: SNB-19
[17] = test system: K562

| SMILES | GI50 [1] | GI50 [2] | GI50 [3] | GI50 [4] | GI50 [5] | GI50 [6] | GI50 [7] | GI50 [8] | GI50 [9] | GI50 [10] | GI50 [11] | GI50 [12] | GI50 [13] | GI50 [14] | GI50 [15] | GI50 [16] | GI50 [17] |
| --- | --- | --- | --- | --- | --- | --- | --- | --- | --- | --- | --- | --- | --- | --- | --- | --- | --- |
| CCCCCCCCCCCCCCCCOCC(O)CO (stereo unspecified) | 16.3 µM (inactive) | 14.8 µM (inactive) | 16.3 µM (inactive) | 18.4 µM (inactive) | 18.2 µM (inactive) | 17.1 µM (inactive) | 19.8 µM (inactive) | 16.5 µM (inactive) | 17.3 µM (inactive) | 22.2 µM (inactive) | 23.4 µM (inactive) | 17.4 µM (inactive) | 19.9 µM (inactive) | 20.3 µM (inactive) | 15.2 µM (inactive) | 24 µM (inactive) |  |
| O=[N+]([O-])c1ccc(Nc2nc3ccccc3s2)cc1 | 3.94 µM (inactive) |  |  | 29.9 µM (inactive) | 18.7 µM (inactive) | 18.5 µM (inactive) | 23 µM (inactive) | 16.3 µM (inactive) | 25.2 µM (inactive) | 27.2 µM (inactive) | 3.03 µM (inactive) | 51.6 µM (inactive) | 29.4 µM (inactive) | 35 µM (inactive) | 33.7 µM (inactive) | 38.5 µM (inactive) | 12.2 µM (inactive) |
| Cc1c(CNc2ccc(C(=O)NC(CCCNC(=O)c3ccccc3C(=O)O)C(=O)O)cc2)cnc2nc(N)nc(N)c12 (stereo unspecified) | 0.000518 µM (active) | 0.000834 µM (active) | 0.000461 µM (active) | 0.1 µM (active) | 0.00248 µM (active) | 0.001 µM (active) | 0.199 µM (active) | 2 µM (inactive) | 0.000899 µM (active) | 1.11 µM (active) | 0.0615 µM (active) | 0.000521 µM (active) | 0.000381 µM (active) | < 0.0001 µM (active) | 1.79 µM (inactive) | 0.01 µM (active) | < 0.0001 µM (active) |
| CCN(CC)C(=S)N/N=C(\C)c1cccc(C)n1 | < 0.01 µM (active) | < 0.01 µM (active) | 0.239 µM (active) | 23.4 µM (inactive) | < 0.01 µM (active) | 0.133 µM (active) | 2.08 µM (inactive) | < 0.01 µM (active) | 0.363 µM (active) | 0.776 µM (active) | < 0.01 µM (active) | 0.201 µM (active) |  |  | 0.832 µM (active) | 0.571 µM (active) | < 0.01 µM (active) |
| CC(=O)c1cc(I)c(O)c2ncccc12 | 2.94 µM (inactive) | 2.67 µM (inactive) | 3.05 µM (inactive) | > 10 µM (inactive) | 6.49 µM (inactive) |  | > 10 µM (inactive) | 5.71 µM (inactive) | 8.17 µM (inactive) | 5.07 µM (inactive) | 5.74 µM (inactive) | > 10 µM (inactive) | 4.06 µM (inactive) | 4.17 µM (inactive) | 9.46 µM (inactive) | 5.47 µM (inactive) | 7.55 µM (inactive) |
| Cc1oc(N)c(S(=O)(=O)c2cc3ccccc3[n+]([O-])c2N)c1C | > 100 µM (inactive) | > 100 µM (inactive) | > 100 µM (inactive) | > 100 µM (inactive) | > 100 µM (inactive) | > 100 µM (inactive) | > 100 µM (inactive) | > 100 µM (inactive) | > 100 µM (inactive) | > 100 µM (inactive) | > 100 µM (inactive) | > 100 µM (inactive) | > 100 µM (inactive) | > 100 µM (inactive) | > 100 µM (inactive) | > 100 µM (inactive) |  |
| Cc1ccc(S(=O)(=O)N/N=C2/C3CCC(C3)C2c2ccccc2)cc1 (stereo unspecified) | > 100 µM (inactive) | > 100 µM (inactive) |  | > 100 µM (inactive) | > 100 µM (inactive) | > 100 µM (inactive) | > 100 µM (inactive) | > 100 µM (inactive) |  | > 100 µM (inactive) | > 100 µM (inactive) | > 100 µM (inactive) | > 100 µM (inactive) | > 100 µM (inactive) | > 100 µM (inactive) | > 100 µM (inactive) | > 100 µM (inactive) |
| C/C(CC1C2CCCC1C2)=N\NC(N)=O (stereo unspecified) | > 100 µM (inactive) | > 100 µM (inactive) | > 100 µM (inactive) | > 100 µM (inactive) | > 100 µM (inactive) | > 100 µM (inactive) | > 100 µM (inactive) | > 100 µM (inactive) | > 100 µM (inactive) | > 100 µM (inactive) | > 100 µM (inactive) | > 100 µM (inactive) | > 100 µM (inactive) | > 100 µM (inactive) | > 100 µM (inactive) | > 100 µM (inactive) |  |
